# Active and inactive are the calls of the source.
# Experiments:
# cells [1] = assay type: functional, cell-based
# cells [2] = assay type: functional, cell-based; remark: listed apart in the source
# [3] = molecular target: FAD-linked sulfhydryl oxidase ALR (Homo sapiens, UniProt P55789); test: ALR-catalysed DTT oxidation blockers – biochemical, H2O2 detection, luminescence, cherry-pick, dose response (AID 493248)
# [4] = molecular target: T1, Rac GTPase-activating protein 1 (Homo sapiens, UniProt Q9H0H5); test: blockers of MgcRacGAP-driven Rac1 GTP hydrolysis – biochemical, ADP Hunter fluorescence, primary and confirmatory, confirmation (AID 624330); assay type: functional
# T1 sequence (Q9H0H5 whole entry): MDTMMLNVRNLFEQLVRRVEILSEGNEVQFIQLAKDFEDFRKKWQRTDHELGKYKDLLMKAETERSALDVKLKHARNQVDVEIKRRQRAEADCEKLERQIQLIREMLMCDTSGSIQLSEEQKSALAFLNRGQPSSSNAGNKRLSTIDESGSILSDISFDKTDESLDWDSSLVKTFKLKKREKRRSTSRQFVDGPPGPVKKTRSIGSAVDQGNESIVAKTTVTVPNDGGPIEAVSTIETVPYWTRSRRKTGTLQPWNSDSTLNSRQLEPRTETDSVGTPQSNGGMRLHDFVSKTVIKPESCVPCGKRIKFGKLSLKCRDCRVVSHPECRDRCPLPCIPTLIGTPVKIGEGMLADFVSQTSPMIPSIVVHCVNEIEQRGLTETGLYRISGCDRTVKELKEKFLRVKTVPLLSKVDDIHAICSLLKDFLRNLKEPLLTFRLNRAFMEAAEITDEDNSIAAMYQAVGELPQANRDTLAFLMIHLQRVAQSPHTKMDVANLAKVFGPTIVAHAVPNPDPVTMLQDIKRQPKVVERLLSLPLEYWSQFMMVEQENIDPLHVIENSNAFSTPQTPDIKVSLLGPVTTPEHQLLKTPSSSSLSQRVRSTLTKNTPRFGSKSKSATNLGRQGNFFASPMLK
# [5] = viability of PTEN-deleted HCT116 cells – cell-based, HCT116 PTEN knockout, dose response (AID 1047); assay type: functional;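 further: HCT116 colon tumor cells with PTEN knocked out; cells exposed to compound for 60 hours before readout; potency for loss of cell viability measured by luminescence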
# [6] = viability of HCT116 lacking mutant beta-catenin – cell-based, human colon tumor, dose response (AID 1045); assay type: functional;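 further: HCT116 colon tumor cells with beta catenin knocked out; cells exposed to compound for 60 hours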
# Fatty acid synthase [7] = molecular target: T2, Fatty acid synthase (Homo sapiens, UniProt P49327); test: inhibition of human FAS-TE enzyme activity – biochemical, endpoint fluorescence intensity, uHTS hits, dose response (AID 624327); assay type: functional;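 further: fluorescence from hydrolysis of an O-methyl fluorescein acyl ester substrate by the enzyme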
# T2 sequence (P49327 whole entry): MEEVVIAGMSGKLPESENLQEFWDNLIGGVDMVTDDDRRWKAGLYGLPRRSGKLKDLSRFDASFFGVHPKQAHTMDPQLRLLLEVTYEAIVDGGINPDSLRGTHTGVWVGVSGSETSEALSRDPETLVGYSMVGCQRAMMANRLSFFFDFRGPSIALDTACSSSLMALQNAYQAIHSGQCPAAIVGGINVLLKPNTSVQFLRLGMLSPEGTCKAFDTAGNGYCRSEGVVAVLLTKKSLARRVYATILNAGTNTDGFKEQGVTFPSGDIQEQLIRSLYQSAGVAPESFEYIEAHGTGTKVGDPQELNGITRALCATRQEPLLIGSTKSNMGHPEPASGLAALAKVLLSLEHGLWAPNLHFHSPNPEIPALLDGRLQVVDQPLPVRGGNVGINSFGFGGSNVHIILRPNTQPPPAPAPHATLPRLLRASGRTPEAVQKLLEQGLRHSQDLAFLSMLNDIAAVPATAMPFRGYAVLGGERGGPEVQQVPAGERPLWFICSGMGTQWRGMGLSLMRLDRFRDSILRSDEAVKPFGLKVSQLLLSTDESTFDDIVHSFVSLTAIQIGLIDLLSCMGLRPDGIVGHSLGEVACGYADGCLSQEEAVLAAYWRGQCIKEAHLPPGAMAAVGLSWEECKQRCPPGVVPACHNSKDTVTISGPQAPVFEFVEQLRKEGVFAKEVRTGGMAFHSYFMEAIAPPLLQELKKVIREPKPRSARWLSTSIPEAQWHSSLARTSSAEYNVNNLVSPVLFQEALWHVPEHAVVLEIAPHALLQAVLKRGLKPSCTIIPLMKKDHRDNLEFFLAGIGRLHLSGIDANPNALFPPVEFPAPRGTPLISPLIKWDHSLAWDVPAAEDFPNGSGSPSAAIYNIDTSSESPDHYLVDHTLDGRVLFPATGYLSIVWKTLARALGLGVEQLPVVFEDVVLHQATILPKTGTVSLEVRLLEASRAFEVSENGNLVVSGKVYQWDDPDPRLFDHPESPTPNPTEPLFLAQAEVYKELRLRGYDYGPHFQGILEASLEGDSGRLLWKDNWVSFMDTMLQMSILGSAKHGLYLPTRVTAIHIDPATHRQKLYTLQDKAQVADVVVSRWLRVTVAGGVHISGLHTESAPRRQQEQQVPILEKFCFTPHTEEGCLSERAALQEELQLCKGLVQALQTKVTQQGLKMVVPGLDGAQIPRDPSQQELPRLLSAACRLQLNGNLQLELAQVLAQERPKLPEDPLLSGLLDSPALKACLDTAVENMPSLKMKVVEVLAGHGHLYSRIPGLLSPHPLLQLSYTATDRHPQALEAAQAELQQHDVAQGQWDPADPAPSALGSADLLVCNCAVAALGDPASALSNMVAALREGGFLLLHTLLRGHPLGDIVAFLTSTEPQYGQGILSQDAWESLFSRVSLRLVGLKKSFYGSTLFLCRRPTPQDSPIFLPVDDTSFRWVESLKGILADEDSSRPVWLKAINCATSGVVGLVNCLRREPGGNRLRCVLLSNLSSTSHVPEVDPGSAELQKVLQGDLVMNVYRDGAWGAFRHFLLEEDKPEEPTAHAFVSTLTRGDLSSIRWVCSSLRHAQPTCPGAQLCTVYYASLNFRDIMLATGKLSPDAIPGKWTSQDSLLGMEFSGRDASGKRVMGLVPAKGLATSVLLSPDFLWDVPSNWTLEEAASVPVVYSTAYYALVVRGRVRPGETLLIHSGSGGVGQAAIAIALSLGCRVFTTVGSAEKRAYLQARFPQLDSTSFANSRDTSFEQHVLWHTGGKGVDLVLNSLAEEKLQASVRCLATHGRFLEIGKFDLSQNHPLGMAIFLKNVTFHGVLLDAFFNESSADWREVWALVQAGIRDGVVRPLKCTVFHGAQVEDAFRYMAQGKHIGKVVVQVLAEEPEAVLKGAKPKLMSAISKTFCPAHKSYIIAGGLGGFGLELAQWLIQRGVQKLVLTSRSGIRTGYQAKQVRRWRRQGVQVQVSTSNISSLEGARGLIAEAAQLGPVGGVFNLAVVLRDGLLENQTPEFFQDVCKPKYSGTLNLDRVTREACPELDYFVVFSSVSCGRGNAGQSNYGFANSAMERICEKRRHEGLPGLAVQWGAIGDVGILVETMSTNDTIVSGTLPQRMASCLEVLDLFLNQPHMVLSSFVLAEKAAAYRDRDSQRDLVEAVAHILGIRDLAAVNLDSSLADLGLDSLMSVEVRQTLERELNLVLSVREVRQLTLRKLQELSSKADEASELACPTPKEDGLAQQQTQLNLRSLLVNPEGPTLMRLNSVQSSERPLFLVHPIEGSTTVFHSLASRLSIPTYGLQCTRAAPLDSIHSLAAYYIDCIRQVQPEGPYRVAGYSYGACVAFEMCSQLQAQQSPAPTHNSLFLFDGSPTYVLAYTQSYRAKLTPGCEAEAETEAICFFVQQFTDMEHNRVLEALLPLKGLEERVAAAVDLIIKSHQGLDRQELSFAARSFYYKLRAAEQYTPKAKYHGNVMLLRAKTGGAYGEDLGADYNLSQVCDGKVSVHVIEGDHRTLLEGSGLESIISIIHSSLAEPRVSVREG
# Fatty acid synthase [8] = molecular target: T2, Fatty acid synthase; test: inhibition of human FAS-TE enzyme activity – biochemical, kinetic fluorescence intensity, dose response (AID 624326); assay type: functional;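 further: rate of fluorescence rise from hydrolysis of a fluorogenic O-methyl fluorescein ester substrate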
# cells [9] = assay type: functional
# [10] = Luminescence Cell-Based Dose Retest to Confirm Inhibitors of Cancer Stem Cells. [Related pubchem assays (depositor defined):AID2717, AID2721]; assay type: functional; settings: Homo sapiens
# Vero = test: cells; assay type: functional; settings: Chlorocebus sabaeus
# Paired box protein Pax-8 = Paired box protein Pax-8 (Homo sapiens, UniProt Q06710); test: PAX8 transcriptional activity inhibition in RMG-I – RMG-I cells, luciferase, cherry-pick, dose response (AID 687027); assay type: functional, cell-based;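 further: luciferase reporter driven by Pax8 target thyroperoxidase promoter measured by SteadyGlo luminescence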
# Sequence of Paired box protein Pax-8 (Q06710 whole entry): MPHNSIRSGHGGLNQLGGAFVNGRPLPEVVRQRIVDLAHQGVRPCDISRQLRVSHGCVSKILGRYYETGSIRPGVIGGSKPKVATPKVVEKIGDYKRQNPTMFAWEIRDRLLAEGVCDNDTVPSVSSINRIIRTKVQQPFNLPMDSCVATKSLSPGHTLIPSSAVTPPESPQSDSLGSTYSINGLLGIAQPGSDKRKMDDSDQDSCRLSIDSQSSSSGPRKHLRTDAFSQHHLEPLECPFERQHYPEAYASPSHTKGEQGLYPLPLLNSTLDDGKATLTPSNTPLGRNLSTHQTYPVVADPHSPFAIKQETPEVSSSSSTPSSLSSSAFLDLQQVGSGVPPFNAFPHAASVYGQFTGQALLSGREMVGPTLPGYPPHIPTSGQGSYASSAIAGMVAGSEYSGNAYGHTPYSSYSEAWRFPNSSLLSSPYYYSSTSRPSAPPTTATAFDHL
# [11] = A549 cell cytotoxicity, dose response, cytotoxicity control, plate reader, cherry-pick, antagonist series (AID 743412); assay type: functional, cell-based
# [12] = toxicity toward HepG2 liver cells – cell-based, plate reader, cherry-pick, antagonist series, cytotoxicity control, dose response (AID 743416); assay type: functional
# [13] = blockade of melanocortin 4 receptor signaling – cell-based, plate reader, cherry pick, counter-screen for LGR2 antagonist project, dose response (AID 743444); assay type: functional;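 further: transfected HEK 293 cells stimulated with alpha-MSH peptide; potency of inhibitors of the alpha-MSH evoked signal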
# Sequence of FAD-linked sulfhydryl oxidase ALR (P55789 whole entry): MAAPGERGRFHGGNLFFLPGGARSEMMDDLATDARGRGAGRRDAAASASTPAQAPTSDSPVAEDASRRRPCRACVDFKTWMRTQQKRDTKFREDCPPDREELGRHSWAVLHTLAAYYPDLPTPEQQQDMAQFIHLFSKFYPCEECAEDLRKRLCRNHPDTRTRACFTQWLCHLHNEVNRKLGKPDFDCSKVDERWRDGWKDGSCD
compound,measurement,setting,value
COc1ccc(C(CC(=O)Nc2ccccc2OC)n2cccc2)cc1 (stereo not given),EC50,cells [1],> 350 µM (not active)
same,EC50,cells [2],2.27 µM (active)
O=[N+]([O-])c1cccc(CN2CCN(c3cccc4[nH]ccc34)CC2)c1,AC50,[3],2.06 µM (active)
same,IC50,[4],45.4 µM (active)
CC(C)CCn1c(SCCc2ccccc2)nc2c1c(=O)[nH]c(=O)n2C,EC50,[5],30.9 µM (active)
same,EC50,[6],35.6 µM (active)
CC(Cc1ccccc1)NC(=O)c1cc([N+](=O)[O-])ccc1Cl (stereo not given),IC50,Fatty acid synthase [7],5.69 µM (active)
same,IC50,Fatty acid synthase [8],5.85 µM (active)
Cc1cccc(OCCn2cccc2/C=C2/C(=O)NC(=O)N(Cc3ccco3)C2=O)c1,EC50,cells [1],> 350 µM (not active)
same,EC50,cells [2],> 350 µM (not active)
Cc1noc(/C=C/c2ccco2)c1S(=O)(=O)N1CCC(C(=O)N2CCc3ccccc3C2)CC1,EC50,[5],24.8 µM (active)
same,EC50,[6],26.9 µM (active)
CC(C)(C)N1C(=O)[C@H]2[C@@H](c3ccc(Br)cc3)N3C(=O)N(c4ccc(Br)cc4)C(=O)[C@@]3(Cc3ccccc3)[C@H]2C1=O,IC50,Fatty acid synthase [7],10.3 µM (active)
same,IC50,Fatty acid synthase [8],10.5 µM (active)
Cc1cccc(Oc2ccc(NC(=O)c3ccccc3C(=O)O)cc2)c1,AC50,[3],5.07 µM (active)
O=C(CSc1nnc(SCc2cccc3ccccc23)s1)N=Nc1c(O)[nH]c2ccccc12,EC50,[5],13.6 µM (active)
same,EC50,[6],10.8 µM (active)
Cc1cccc(NC(=O)COc2ccc(Br)cc2)n1,IC50,cells [9],23.4 µM (active)
Cc1sc2nc(CN3CCCC3)nc(Cl)c2c1C,EC50,[5],16.2 µM (active)
same,EC50,[6],11.2 µM (active)
COc1ccc(-c2csc3nc(-c4ccccc4F)oc(=O)c23)cc1,IC50,Fatty acid synthase [7],2.83 µM (active)
same,IC50,Fatty acid synthase [8],1.16 µM (active)
COC(=O)C1CSC(C(=O)OC)N1C(=O)CN1CCN(c2ccccc2)CC1 (stereo not given),AC50,[3],2.84 µM (active)
CCCCn1c(NC(C)CC)nc2c1c(=O)[nH]c(=O)n2C (stereo not given),AC50,[3],4.01 µM (active)
COc1cc(C(=O)NCC(c2cccnc2)N2CCN(c3ccccc3)CC2)cc(OC)c1OC (stereo not given),AC50,[3],3.41 µM (active)
COc1cc(N(C(=O)Cc2cccs2)C(C(=O)NC2CCCCC2)c2ccc(C)cc2)ccc1-n1cnnn1 (stereo not given),EC50,[5],8.44 µM (active)
same,EC50,[6],8.86 µM (active)
COc1ccc(NC(=O)Nc2ccc(Br)cn2)cc1,EC50,cells [1],> 350 µM (not active)
same,EC50,cells [2],> 350 µM (not active)
COc1cccc(NC(=S)N(CCCN2CCOCC2)Cc2cn(C)c3ccccc23)c1,EC50,cells [1],> 350 µM (not active)
same,EC50,cells [2],> 350 µM (not active)
Cc1ccc(-c2nc(Nc3cccc(C)c3)sc2CC(=O)O)cc1,AC50,[3],9.95 µM (active)
Cn1c(CNc2ccc(Br)cc2)nc2ccccc21,AC50,[3],14.6 µM (active)
Cc1nnc2sc(SCc3cccc(Cl)c3)nn2c1=O,AC50,[10],34.2 µM (active)
same,AC50,[3],0.175 µM (active)
O=C(Nc1nc2ccc([N+](=O)[O-])cc2s1)c1c(F)cccc1F,EC50,cells [1],> 350 µM (not active)
same,EC50,cells [2],31.2 µM (active)
CC1(C)CC(=O)CC(C2(O)C(=O)N(Cc3ccccc3)c3ccccc32)O1 (stereo not given),EC50,[5],17.7 µM (active)
same,EC50,[6],17.4 µM (active)
Cc1cccc(C)c1NC(=O)NCCCN1CCN(c2ccccc2)CC1,AC50,[3],89.4 µM (active)
O=[N+]([O-])c1cc(-c2csc(NCCc3nc4cc(Cl)c(Cl)cc4n3CCCO)n2)ccc1Cl,IC50,Fatty acid synthase [7],2.49 µM (active)
same,IC50,Fatty acid synthase [8],2.55 µM (active)
CCc1nonc1NC(=O)COc1ccc(Cl)c(C)c1,IC50,cells [9],17 µM (active)
O=C(CCc1ccccc1)N1CCN(c2ccc(F)cc2)CC1,AC50,[3],13.8 µM (active)
C[C@H](CO)N1C[C@H](C)[C@@H](CN(C)C(=O)Nc2ccccc2)Oc2c(NC(=O)Nc3ccc(C(F)(F)F)cc3)cccc2C1=O,IC50,Fatty acid synthase [7],2.24 µM (active)
same,IC50,Fatty acid synthase [8],2.08 µM (active)
O=[N+]([O-])c1cc(-c2csc(NCCc3nc4cc(C(F)(F)F)ccc4n3CCCO)n2)ccc1Cl,IC50,Fatty acid synthase [7],5.17 µM (active)
same,IC50,Fatty acid synthase [8],3.93 µM (active)
S=C(NCCc1ccccc1)N1Cc2cc(Br)ccc2-n2nncc2C1,IC50,Fatty acid synthase [7],12.1 µM (active)
same,IC50,Fatty acid synthase [8],7.04 µM (active)
CC(=O)Nc1ccc(S(=O)(=O)N2CN(c3ccc(C)cc3)c3nc4ccccc4nc32)cc1,CC50,Vero,> 25 µM (active)
CCOC(CNCc1cc(C)c2[nH]c3ccccc3c2c1C)OCC,CC50,Vero,22.6 µM (active)
CN(Cc1cnn(-c2ccccc2)c1)C(=O)c1ccc(S(=O)(=O)NCc2ccco2)cc1,CC50,Vero,14.4 µM (active)
C[C@@H]1CN([C@H](C)CO)C(=O)c2cc(NC(=O)Nc3ccc(C(F)(F)F)cc3)ccc2O[C@@H](C)CCCCO[C@H]1CN(C)Cc1ccc(Cl)c(Cl)c1,AC50,Paired box protein Pax-8,6.74 µM (active)
OC[C@H]1[C@@H](c2ccc(-c3ccc(F)cc3)cc2)[C@@H]2CN(Cc3ccccn3)CCCCN12,AC50,[11],22 µM (active)
same,AC50,[12],19.1 µM (active)
same,AC50,[13],37.5 µM (active)
COc1cccc(/C=N/NC(=O)c2ccc([N+](=O)[O-])cc2Cl)c1O,EC50,cells [1],19.1 µM (active)
same,EC50,cells [2],172 µM (active)
CCOC(=O)COc1ccc2c(=O)cc(-c3ccccc3)oc2c1 [EFLOXATE],IC50,cells [9],< 0.1 µM (active)
